Reference: patent US20260240794A1 (priority 2023, published 2026)
Where two headings read alike, the source gives them in different places.

Tests used:
mucous metaplasia = assay: Mucous metaplasia in sensitized/challenged mice (photomicrographs); type: in vivo; details: sensitized/challenged mice after treatment
Text: FIG. 9 is a photomicrograph showing the occurrence of a mucus plug in the bronchus of a child with fatal asthma.

β-arrestin pathway = assay: Block of the β-arrestin pathway; details: FIG. 13
β2-adrenergic receptor = molecular target: T1, β2-adrenergic receptor (Mus musculus, UniProt P18762); assay: β-adrenergic receptor density by radioligand binding (ICYP) in lung membranes of treated asthmatic mice; details: for Kd: KD of radioligand ICYP in lung membranes, not of the drug, read-out: Apparent KD (in parentheses) (converted); for Bmax (receptor density): lung membranes
T1 construct: rows headed: Apparent KD (in parentheses); other: 15 Minutes of drug treatment; KD of radioligand ICYP in lung membranes, not of the; Bmax (receptor density); lung membranes; Apparent KD (in parentheses); other: 28 Days of drug treatment; KD of radioligand ICYP in lung membranes, not of the dr
T1 sequence (P18762 whole entry): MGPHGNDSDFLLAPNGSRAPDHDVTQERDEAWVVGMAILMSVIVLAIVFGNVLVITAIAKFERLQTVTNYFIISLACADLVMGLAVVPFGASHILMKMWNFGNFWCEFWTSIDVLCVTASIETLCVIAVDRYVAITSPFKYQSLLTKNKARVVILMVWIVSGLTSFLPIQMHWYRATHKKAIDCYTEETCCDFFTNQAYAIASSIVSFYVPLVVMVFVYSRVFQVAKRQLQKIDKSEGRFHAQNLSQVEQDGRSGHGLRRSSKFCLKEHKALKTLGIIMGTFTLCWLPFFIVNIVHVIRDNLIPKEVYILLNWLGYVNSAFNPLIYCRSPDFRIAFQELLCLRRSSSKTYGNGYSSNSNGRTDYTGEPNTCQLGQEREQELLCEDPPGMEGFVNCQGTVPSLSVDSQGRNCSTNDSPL

[1] = Pharmacokinetics of inhaled and oral airway drugs (literature); type: in vivo, humans; details: 6 children with asthma versus 11 healthy adults
[2] = cited from earlier work
[3] = system: asthmatic mice (ovalbumin-sensitized and ovalbumin-challenged); type: in vivo, Balb/cJ mice; details: chronic treatment 7 days, 20 mg/kg (metoprolol 3x daily s.c., timolol in chow), versus historical controls
[4] = cited from earlier work; remark: listed apart in the source
mucin 5AC = assay: Level of mucin 5AC in smokers, nadolol versus placebo; type: in vivo, human; details: P<0.05
Phospholipase C (PLC-β1) = assay: Ratio of phospholipase C to actin by immunoblotting in cultured tracheal smooth muscle cells; type: cell-based; details: cells from asthmatic mice, chronic nadolol high dose treatment
Text: Cultured tracheal smooth muscle cells were obtained from mice exposed to the following treatments: NS/NC=nonasthmatic, non-challenged mice; S/C=asthmatic mice; Sal.Ac=asthmatic mice, acute salbutamol treatment; Sal.Ch=asthmatic mice, chronic salbutamol treatment; Nad.Ac=asthmatic mice, acute nadolol high dose treatment; and Nad.Ch=asthmatic mice, chronic nadolol high dose treatment.
After airway function experiments, the tracheas were surgically removed from anesthetized mice that had been treated with drugs or vehicle. The tracheas were minced and the cells plated and grown in culture. The smooth muscle cells grow faster and take over the culture dish. The cells were grown in medium which contained the drugs used in the treatment or vehicle controls. Phospholipase C (PLC-(β1) was determined by immunoblotting with an antibody specific for the enzyme. Actin was used as a loading control and the amount of PLC-β1 was expressed as a ratio of phospholipase C to actin.

cAMP accumulation = assay: cAMP accumulation

SMILES	block of the β-arrestin pathway (β-arrestin pathway)	Kd (β2-adrenergic receptor; 15 Minutes of drug treatment)	Kd (β2-adrenergic receptor; 28 Days of drug treatment)	Bmax (receptor density) (β2-adrenergic receptor; 28 Days of drug treatment)	other results
C=CCc1ccccc1OCC(O)CNC(C)C (stereo not drawn) [alprenolol]	did not block the β-arrestin pathway	0.454 nM	0.291 nM	179.2 ± 53.05 femtomoles of sites per milligram of protein	mucous metaplasia (mucous metaplasia): no improvement in mucous metaplasia
CCCC1O[C@@H]2C[C@H]3[C@@H]4CCC5=CC(=O)C=C[C@]5(C)[C@H]4[C@@H](O)C[C@]3(C)[C@]2(C(=O)CO)O1 (stereo partly drawn) [budesonide]					plasma clearance of the two enantiomers per kilogram of bodyweight, excess in children over adults [1]: about 50%; elimination half-life ([2]; in vivo): 2.8 ± 1.1 h; plasma clearance ([2]; in vivo): 84 ± 27 L/h
COc1ccccc1OCCNCC(O)COc1cccc2[nH]c3ccccc3c12 (stereo not drawn) [carvedilol]	did not block the β-arrestin pathway	0.565 nM	1.44 nM	904.1 ± 43.46 femtomoles of sites per milligram of protein	
COCCc1ccc(OCC(O)CNC(C)C)cc1 (stereo not drawn) [metoprolol]					airway hyperresponsiveness (Raw) [3]: effective in reducing airway hyperresponsiveness
CC(C)(C)NCC(O)COc1cccc2c1CC(O)C(O)C2 (stereo not drawn) [nadolol]	blocks this pathway	0.695 nM	1.59 nM	785.5 ± 154.8 femtomoles of sites per milligram of protein	lipid solubility [4]: low lipid solubility; level of mucin 5AC (mucin 5AC): reduces the accumulation of the mucus-associated protein mucin 5AC; mucous metaplasia (mucous metaplasia): nearly complete elimination of mucous metaplasia; ratio of phospholipase C (PLC-β1) to actin (Phospholipase C (PLC-β1)): significantly decreases the activity of phospholipase C; cAMP accumulation (cAMP accumulation): not associated with cAMP accumulation
CC(C)NCC(O)COc1cccc2ccccc12 (stereo not drawn) [propranolol]	did not block the β-arrestin pathway				
CC(C)(C)NCC(O)c1ccc(O)c(CO)c1 (stereo not drawn) [salbutamol]				97.0 ± 23.02 femtomoles of sites per milligram of protein	
CC(C)(C)NCC(O)c1cc(O)cc(O)c1 (stereo not drawn) [terbutaline]					bioavailability with the oral component (swallowed fraction of the dose) added ([2]; from an MDI): 16.5%; mean pulmonary bioavailability ([2]; from an MDI): 9.1%
CC(C)(C)NC[C@H](O)COc1nsnc1N1CCOCC1 [timolol]					airway hyperresponsiveness (Raw) [3]: effective in reducing airway hyperresponsiveness
